Key:
Assay in all cases: relative viability (nuclei count vs DMSO), 5 days (fraction); higher = more cells survive
Quizartinib + Linsitinib = compound: CC(C)(C)c1cc(NC(=O)Nc2ccc(-c3cn4c(n3)sc3cc(OCCN5CCOCC5)ccc34)cc2)no1 [Quizartinib] + C[C@]1(O)C[C@@H](c2nc(-c3ccc4ccc(-c5ccccc5)nc4c3)c3c(N)nccn32)C1 [Linsitinib] (partner 1 µM)
Outline: (§1)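 Lung cancer cell lines were seeded in 1536-well plates and dosed by pin tool the next day, with either a single drug or a fixed anchor-drug dose combined with five library-drug doses (not always all listed) spaced in √10 steps. Five days later, one step fixed the cells and stained their nuclei (final 0.05% Triton X-100, 1% formaldehyde, 1 ug/ml Hoechst), and nuclei were counted on 4× images. Relative viability is the nuclei count in treated wells divided by the count in vehicle wells, and each value is the median of duplicate plates.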

YM155 + Pictilisib = compound: COCC[n+]1c2c(n(Cc3cnccn3)c1C)C(=O)c1ccccc1C2=O [YM155] + CS(=O)(=O)N1CCN(Cc2cc3nc(-c4cccc5[nH]ncc45)nc(N4CCOCC4)c3s2)CC1 [Pictilisib] (partner 1 µM)
Outline: as §1

Quizartinib + Crizotinib = compound: CC(C)(C)c1cc(NC(=O)Nc2ccc(-c3cn4c(n3)sc3cc(OCCN5CCOCC5)ccc34)cc2)no1 [Quizartinib] + C[C@@H](Oc1cc(-c2cnn(C3CCNCC3)c2)cnc1N)c1c(Cl)ccc(F)c1Cl [Crizotinib] (partner 1 µM)
Outline: as §1

Quizartinib + Foretinib = compound: CC(C)(C)c1cc(NC(=O)Nc2ccc(-c3cn4c(n3)sc3cc(OCCN5CCOCC5)ccc34)cc2)no1 [Quizartinib] + COc1cc2c(Oc3ccc(NC(=O)C4(C(=O)Nc5ccc(F)cc5)CC4)cc3F)ccnc2cc1OCCCN1CCOCC1 [Foretinib] (partner 0.25 µM)
Outline: as §1

Cell Line | relative viability (Quizartinib + Linsitinib; first compound 0.001 µM) | relative viability (Quizartinib + Linsitinib; first compound 0.003162 µM) | relative viability (Quizartinib + Linsitinib; first compound 0.01 µM) | relative viability (Quizartinib + Linsitinib; first compound 0.03162 µM) | relative viability (Quizartinib + Linsitinib; first compound 0.1 µM) | relative viability (YM155 + Pictilisib; first compound 0.002 µM) | relative viability (YM155 + Pictilisib; first compound 0.006325 µM) | relative viability (YM155 + Pictilisib; first compound 0.02 µM) | relative viability (YM155 + Pictilisib; first compound 0.06325 µM) | relative viability (Quizartinib + Crizotinib; first compound 0.001 µM) | relative viability (Quizartinib + Crizotinib; first compound 0.003162 µM) | relative viability (Quizartinib + Crizotinib; first compound 0.01 µM) | relative viability (Quizartinib + Crizotinib; first compound 0.03162 µM) | relative viability (Quizartinib + Crizotinib; first compound 0.1 µM) | relative viability (Quizartinib + Foretinib; first compound 0.003162 µM) | relative viability (Quizartinib + Foretinib; first compound 0.01 µM) | relative viability (Quizartinib + Foretinib; first compound 0.03162 µM) | relative viability (Quizartinib + Foretinib; first compound 0.1 µM) | relative viability (Quizartinib + Foretinib; first compound 0.001 µM)
NCI-H2087 | 0.857 | 0.98 | 1.06 | 0.935 | 0.705 | 0.868 | 0.762 | 0.931 | 0.642 | 0.717 | 0.685 | 0.883 | 0.767 | 0.863 | 1.05 | 1.12 | 0.941 | 1.07 | 
COR-L 105 | 0.704 | 0.846 | 1.23 | 0.733 | 0.95 | 0.332 | 0.493 | 0.447 | 0.404 | 0.788 | 0.734 | 0.669 | 0.49 | 0.902 | 0.986 | 1.03 | 1 | 0.964 | 0.775
NCI-H2126 | 0.712 | 0.705 | 0.735 | 0.767 | 0.835 | 0.427 | 0.525 | 0.466 | 0.54 | 0.816 | 0.992 | 1.12 | 0.962 | 1.07 | 1.12 | 1.2 | 1.22 | 1.23 | 1
NCI-H322M | 0.798 | 1.01 | 1.02 | 0.917 | 0.92 | 0.49 | 0.553 | 0.559 | 0.556 | 0.881 | 0.803 | 0.955 | 0.857 | 0.997 | 0.939 | 0.939 | 0.851 | 0.954 | 0.86
NCI-H2009 | 0.917 | 1.13 | 1.24 | 1.01 | 1.18 | 0.8 | 0.796 | 0.852 | 0.57 | 0.984 | 1.02 | 0.994 | 0.603 | 1 | 1.17 | 1.29 | 1.17 | 1.21 | 1.24
UMC-11 | 1.05 | 0.964 | 1.06 | 0.914 | 1.02 | 0.68 | 0.863 | 0.824 | 0.787 | 0.543 | 0.562 | 0.739 | 0.66 | 0.577 | 0.972 | 1.17 | 0.957 | 1.1 | 
EPLC-272H | 1.01 | 1.38 | 1.32 | 1.32 | 1.14 | 0.307 | 0.268 | 0.286 | 0.328 | 0.826 | 0.828 | 0.739 | 0.845 | 1.01 | 0.685 | 0.75 | 0.682 | 0.669 | 0.535

Source: the supplement of paper PMC10307832
